{"source": "patent US20220296659A1", "about": "“PHARMACEUTICAL COMPOSITION FOR TREATMENT OF TUMOR OR CANCER, AND APPLICATION THEREOF” (FANTASIA BIOPHARMA (ZHEJIANG) CO. LTD, priority 2019, published 2022)", "key": {"lung cancer cells": {"tested_on": "lung cancer cells", "format": "in vivo, mice", "conditions": "after completion of the experiment"}}, "data": [{"compound": "O=C(O)c1cc(O)c2c(c1)C(=O)c1cccc(O)c1C2=O", "note": "[rhein]", "values": [{"measurement": "overall inhibition ratio (lung metastasis)", "setting": "lung cancer cells", "result": 15.8, "unit": "%"}, {"measurement": "toxic damage to the tumor-bearing mice", "setting": "different doses, under the experimental conditions", "result": "did not cause toxic damage"}, {"measurement": "influence on the body temperature of tumor-bearing mice", "setting": "mouse, in vivo", "result": "some fluctuations"}]}]}
